We go through 14 compounds from patent publication US12649733B2, “3,6-diamino-pyridazin-3-yl derivatives, pharmaceutical compositions containing them and their uses as pro-apoptotic agents” (LES LABORATOIRES SERVIER, priority 2019, dated 2026).

Each structure is given as a SMILES string. A value given as a limit tells only on which side of the number the result lay.

For assay [1], the target named is T1, BCLXL (Homo sapiens, UniProt Q07817, V10N/V9A). Nature of the assay: AlphaLISA assay (BIM peptide displacement). To be noted: 20 pM protein, 1 nM peptide. Type of assay: binding. A digest of the protocol: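 Competitive displacement of fluorescein-labelled BIM peptide (1 nM) from biotinylated GST-BCL-XL(2-209) (20 pM) in 10 mM HEPES, 150 mM NaCl, 0.05% Tween 20, pH 7.4, 4% DMSO; 11-point dilutions. Overnight at 23° C with acceptor beads, then donor beads 2 h; Alpha signal at 615 nm.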
T1 sequence (Q07817 with tags, fused parts or gaps V9A/V10N): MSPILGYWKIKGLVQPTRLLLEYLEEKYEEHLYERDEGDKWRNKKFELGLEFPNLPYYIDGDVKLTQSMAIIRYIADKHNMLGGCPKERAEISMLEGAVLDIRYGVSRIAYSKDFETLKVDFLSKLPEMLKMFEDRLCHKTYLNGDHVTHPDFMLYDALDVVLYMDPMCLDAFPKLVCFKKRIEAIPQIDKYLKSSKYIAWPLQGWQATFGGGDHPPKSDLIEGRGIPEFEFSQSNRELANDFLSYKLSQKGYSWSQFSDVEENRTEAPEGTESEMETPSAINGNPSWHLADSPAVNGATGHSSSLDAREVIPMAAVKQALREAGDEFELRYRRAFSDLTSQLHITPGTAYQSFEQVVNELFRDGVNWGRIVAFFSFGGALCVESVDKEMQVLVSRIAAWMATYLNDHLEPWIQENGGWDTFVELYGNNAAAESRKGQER
(In general: Bead proximity is the source of the signal in Alpha formats.)

The target in assay [2] is T1, BCLXL. Nature of the assay: Fluorescence polarisation assay (PUMA-based probe displacement). Also: 20 nM protein, 10 nM fluorescent probe. Type of assay: binding. In general terms: In fluorescence polarisation assays a small probe gives low polarisation when free and higher when bound to something large.
The test system of the next assay is MOLT-4 cells. Nature of the assay: MOLT-4 cell viability, MTT assay. It is filed as cell-based. To be noted: Homo sapiens, MOLT-4, 48 h, 48 h exposure. Put shortly:
(§1)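 Viability read by MTT reduction (OD 540 nm after overnight SDS/HCl lysis) after 48 h compound treatment of cells in RPMI 1640/10% FBS. Triplicates at nine concentrations, 3.16-fold apart; four-parameter curve fitting yields IC50.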
In general terms: Tetrazolium assays rely on reduction of a dye to a coloured formazan, in cell work by metabolically active cells.

The target in a further assay is T2, Bcl-xL protein (Homo sapiens, UniProt Q07817, N197C).
T2 construct: (2-197)[N197C]; His-His (two His8 stretches joined by a Gly/Ala/Ser/Thr linker)
T2 sequence (Q07817 2-197 N197C): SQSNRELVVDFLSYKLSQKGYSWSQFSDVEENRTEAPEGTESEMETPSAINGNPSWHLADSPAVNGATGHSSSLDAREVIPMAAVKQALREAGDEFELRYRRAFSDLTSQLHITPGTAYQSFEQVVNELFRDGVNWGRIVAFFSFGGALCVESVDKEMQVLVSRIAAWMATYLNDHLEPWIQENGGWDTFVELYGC
The experiment in a line: Fluorescence quenching assay (PUMA peptide displacement). Particulars: 1 nM protein, 400 nM peptide, 2 hours at 23° C.; KI determined from IC50. It is filed as binding. Put shortly:
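Compounds were tested as an 11-point series in pH 7.4 HEPES/NaCl/Tween buffer with 5% DMSO, 2 h at 23 °C. Cy5-tagged Bcl-xL(2-197, N197C) at 1 nM and quencher-tagged PUMA peptide at 400 nM were used. Competitive binders restore fluorescence (620/680 nm), and IC50 values were converted to KI.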

For the next assay, the system named is H146 cells. Nature of the assay: H146 cell viability, MTT assay. It is filed as cell-based. To be noted: Homo sapiens, NCI-H146, 48 h, 48 h exposure. A digest of the protocol:
as §1

Take `Cc1cc(N(C)c2nc(C(=O)O)c(CCCOc3ccc(C#CCN(C)C)cc3F)s2)nnc1Nc1nc2ccccc2s1` [Example 50, 2-[[6-(1,3-Benzothiazol-2-ylamino)-5-methyl-pyridazin-3-yl]-methyl-amino]-5-[3-[4-[3-(dimethylamino)prop-1-ynyl]-2-fluoro-phenoxy]propyl]thiazole-4-carboxylic acid]: the IC50 is 0.0074 nM on BCLXL [1], 0.462 nM in the assay with MOLT-4 cells and 2.84 nM in the assay on H146 cells. Besides, the values for the Ki on BCLXL [2] and on Bcl-xL protein were 1.2 nM and 0.0044 nM, respectively.

As to `CN(C)CC#Cc1ccc(OCCCc2sc(N(C)c3cc(C4CC4)c(Nc4nc5ccccc5s4)nn3)nc2C(=O)O)c(F)c1` [Example 62, 2-({6-[(1,3-Benzothiazol-2-yl)amino]-5-cyclopropylpyridazin-3-yl}(methyl)amino)-5-(3-{4-[3-(dimethylamino)prop-1-yn-1-yl]-2-fluorophenoxy}propyl)-1,3-thiazole-4-carboxylic acid], the half-maximal inhibitory concentration (IC50) was found to be 0.11 nM on BCLXL [1], 0.444 nM in the assay on MOLT-4 cells and 4.66 nM in the assay with H146 cells. For the same compound, the Ki at BCLXL [2] is under 1 nM; on Bcl-xL protein it was 0.006 nM.

For `CNCC#Cc1ccc(OCCCc2sc(N(CCC(O)COC)c3cc(C)c(Nc4nc5ccccc5s4)nn3)nc2C(=O)O)c(F)c1` (stereo not shown) [Example 109, 2-[[6-(1,3-Benzothiazol-2-ylamino)-5-methyl-pyridazin-3-yl]-(3-hydroxy-4-methoxy-butyl)amino]-5-[3-[2-fluoro-4-[3-(methylamino)prop-1-ynyl]phenoxy]propyl]thiazole-4-carboxylic acid], the results for the IC50 at BCLXL [1], in the assay with MOLT-4 cells and in the assay with H146 cells were 0.011 nM, 19.8 nM and 6.38 nM, respectively. Further, the Ki is under 1 nM on BCLXL [2] and 0.0011 nM at Bcl-xL protein.

As to `Cc1cc(N(CCCC(O)CN(C)CCN(C)C)c2nc(C(=O)O)c(CCCOc3ccc(C#CCN(C)C)cc3F)s2)nnc1Nc1nc2ccccc2s1` (stereo not shown) [Example 124, 2-[[6-(1,3-Benzothiazol-2-ylamino)-5-methyl-pyridazin-3-yl]-[5-[2-(dimethylamino)ethyl-methyl-amino]-4-hydroxy-pentyl]amino]-5-[3-[4-[3-(dimethylamino)prop-1-ynyl]-2-fluoro-phenoxy]propyl]thiazole-4-carboxylic acid], the concentration for half-maximal inhibition (IC50) at BCLXL [1] was 0.0076 nM; in the assay with MOLT-4 cells, 19.2 nM; in the assay with H146 cells, 50.6 nM. The results for the inhibitory constant (Ki) at BCLXL [2] and at Bcl-xL protein were under 1 nM and 0.0017 nM, respectively.

Regarding `Cc1cc(N(CCCCO)c2nc(C(=O)O)c(CCCOc3ccc(C#CCN(C)C)cc3F)s2)nnc1Nc1nc2ccccc2s1` [Example 134, 2-[[6-(1,3-Benzothiazol-2-ylamino)-5-methyl-pyridazin-3-yl]-(4-hydroxybutyl)amino]-5-[3-[4-[3-(dimethylamino)prop-1-ynyl]-2-fluoro-phenoxy]propyl]thiazole-4-carboxylic acid], the IC50 was 0.0053 nM at BCLXL [1], 0.783 nM in the assay with MOLT-4 cells and 1.91 nM with H146 cells. The inhibition constant (Ki) was under 1 nM at BCLXL [2] and 0.001 nM at Bcl-xL protein.

For the compound `Cc1cc(N(CCCCCO)c2nc(C(=O)O)c(CCCOc3ccc(C#CCN(C)C)cc3F)s2)nnc1Nc1nc2ccccc2s1` [Example 141, 2-[[6-(1,3-Benzothiazol-2-ylamino)-5-methyl-pyridazin-3-yl]-(5-hydroxypentyl)amino]-5-[3-[4-[3-(dimethylamino)prop-1-ynyl]-2-fluoro-phenoxy]propyl]thiazole-4-carboxylic acid], at BCLXL [1], the IC50 came out at 0.014 nM. In addition, the inhibition constant (Ki) on BCLXL [2] was under 1 nM; on Bcl-xL protein, 0.0055 nM.

On to `CNCC#Cc1ccc(OCCCc2sc(N(CCCC(O)C[N+](C)(C)C)c3cc(C)c(Nc4nc5ccccc5s4)nn3)nc2C(=O)[O-])c(F)c1` (stereo not shown) [Example 144, 2-[[6-(1,3-Benzothiazol-2-ylamino)-5-methyl-pyridazin-3-yl]-[4-hydroxy-5-(trimethylammonio)pentyl]amino]-5-[3-[2-fluoro-4-[3-(methylamino)prop-1-ynyl]phenoxy]propyl]thiazole-4-carboxylate], for which the IC50 at BCLXL [1] stood at 0.014 nM; in the assay with MOLT-4 cells it was 430 nM; with H146 cells, 14500 nM. Moreover, the inhibitory constant (Ki) was under 1 nM on BCLXL [2] and 0.0039 nM on Bcl-xL protein.

On to `CNCC#Cc1ccc(OCCCc2sc(N(CCCC(O)C[N+](C)(C)CCCS(=O)(=O)[O-])c3cc(C)c(Nc4nc5ccccc5s4)nn3)nc2C(=O)O)c(F)c1` (stereo not shown) [Example 146, 3-[[5-[[6-(1,3-Benzothiazol-2-ylamino)-5-methyl-pyridazin-3-yl]-[4-carboxy-5-[3-[2-fluoro-4-[3-(methylamino)prop-1-ynyl]phenoxy]propyl]thiazol-2-yl]amino]-2-hydroxy-pentyl]-dimethyl-ammonio]propane-1-sulfonate], for which the IC50 at BCLXL [1] stood at 0.022 nM; in the assay with MOLT-4 cells it was 668 nM; with H146 cells it was 971 nM. Further, the inhibitory constant (Ki) on BCLXL [2] is under 1 nM; at Bcl-xL protein, 0.0012 nM.

Take `CNCC(O)CCCN(c1cc(C)c(Nc2nc3ccccc3s2)nn1)c1nc(C(=O)O)c(CCCOc2ccc(C#CCN(C)C)cc2F)s1` (stereo not shown) [Example 150, 2-[[6-(1,3-Benzothiazol-2-ylamino)-5-methyl-pyridazin-3-yl]-[4-hydroxy-5-(methylamino)pentyl]amino]-5-[3-[4-[3-(dimethylamino)prop-1-ynyl]-2-fluoro-phenoxy]propyl]thiazole-4-carboxylic acid]: the half-maximal inhibitory concentration (IC50) worked out at 0.013 nM on BCLXL [1], 136 nM in the assay with MOLT-4 cells and 16.8 nM with H146 cells. The Ki on BCLXL [2] is under 1 nM; on Bcl-xL protein, 0.0017 nM.

Turning to `C/C(=C\c1sc(N(C)c2cc(C)c(Nc3nc4ccccc4s3)nn2)nc1C(=O)O)COc1ccc(C#CCN(C)C)cc1F` [Example 163, 2-({6-[(1,3-Benzothiazol-2-yl)amino]-5-methylpyridazin-3-yl}(methyl)amino)-5-[(1E)-3-{4-[3-(dimethylamino)prop-1-yn-1-yl]-2-fluorophenoxy}-2-methylprop-1-en-1-yl]-1,3-thiazole-4-carboxylic acid], the IC50 was determined as 0.18 nM on BCLXL [1], 96.2 nM in the assay with MOLT-4 cells and 1040 nM with H146 cells. For the same compound, the results for the inhibitory constant (Ki) at BCLXL [2] and at Bcl-xL protein were under 1 nM and 0.02 nM, respectively.

Take `Cc1cc(N(C)c2nc(C(=O)O)c(CC(O)COc3ccc(C#CCN(C)C)cc3F)s2)nnc1Nc1nc2ccccc2s1` (stereo not shown) [Example 164, 2-({6-[(1,3-benzothiazol-2-yl)amino]-5-methylpyridazin-3-yl}(methyl)amino)-5-(3-{4-[3-(dimethylamino)prop-1-yn-1-yl]-2-fluorophenoxy}-2-hydroxypropyl)-1,3-thiazole-4-carboxylic acid]: the half-maximal inhibitory concentration (IC50) is 0.0071 nM at BCLXL [1], 12.9 nM in the assay on MOLT-4 cells and 34.6 nM in the assay on H146 cells. Besides, the results for the inhibition constant Ki at BCLXL [2] and on Bcl-xL protein were under 1 nM and 0.0019 nM, respectively.

Consider `Cc1cc(N(CCCCCN(C)C2CCNCC2)c2nc(C(=O)O)c(CCCOc3ccc(C#CCN(C)C)cc3F)s2)nnc1Nc1nc2ccccc2s1` [Example 165, 2-[[6-(1,3-Benzothiazol-2-ylamino)-5-methyl-pyridazin-3-yl]-[5-[methyl(4-piperidyl)amino]pentyl]amino]-5-[3-[4-[3-(dimethylamino)prop-1-ynyl]-2-fluoro-phenoxy]propyl]thiazole-4-carboxylic acid], for which the figures for the concentration for half-maximal inhibition (IC50) at BCLXL [1], in the assay on MOLT-4 cells and in the assay on H146 cells were 0.019 nM, 430 nM and 211 nM, respectively. The inhibition constant Ki on BCLXL [2] is under 1 nM; at Bcl-xL protein, 0.0059 nM.

Regarding `Cc1cc(N(CCCCCNCCN2CCOCC2)c2nc(C(=O)O)c(CCCOc3ccc(C#CCN(C)C)cc3F)s2)nnc1Nc1nc2ccccc2s1` [Example 166, 2-[[6-(1,3-Benzothiazol-2-ylamino)-5-methyl-pyridazin-3-yl]-[5-(2-morpholinoethylamino)pentyl]amino]-5-[3-[4-[3-(dimethylamino)prop-1-ynyl]-2-fluoro-phenoxy]propyl]thiazole-4-carboxylic acid], the IC50 worked out at 0.0092 nM on BCLXL [1], 172 nM with MOLT-4 cells and 142 nM in the assay on H146 cells. Besides, the inhibitory constant (Ki) was under 1 nM on BCLXL [2] and 0.0026 nM on Bcl-xL protein.

On to `Cc1cc(N(CCCCNCCN2CCN(C)CC2)c2nc(C(=O)O)c(CCCOc3ccc(C#CCN(C)C)cc3F)s2)nnc1Nc1nc2ccccc2s1` [Example 168, 2-[[6-(1,3-Benzothiazol-2-ylamino)-5-methyl-pyridazin-3-yl]-[4-[2-(4-methylpiperazin-1-yl)ethylamino]butyl]amino]-5-[3-[4-[3-(dimethylamino)prop-1-ynyl]-2-fluoro-phenoxy]propyl]thiazole-4-carboxylic acid], for which the IC50 at BCLXL [1] was 0.012 nM; in the assay on MOLT-4 cells, 178 nM. Besides, the Ki on BCLXL [2] was under 1 nM; on Bcl-xL protein, 0.0026 nM.

By IC50 is commonly meant the point on the concentration scale where inhibition reaches its midpoint. What is called Ki is the equilibrium dissociation constant of an inhibitor or competing ligand from its target.
